Reference: patent publication US8603527B2, “Pharmaceutical formulations of a substituted diaminopurine” (Signal Pharmaceuticals, LLC, priority 2010, dated 2013)

Assay: clinical
Settings: human, in vivo, 100 mg; for AUC(0-t): AUC0-t; for Vd/F: Vz/F
Description: Methods: This was an open-label study conducted at a single study center in conformance with good clinical practice (GCP). Thirty-six eligible healthy male and female subjects were enrolled and distributed into 3 groups as follows:
Group 1—A total of 12 females between 18 to 55 years of age, inclusive (±5 years age-matched and ±10% weight-matched to subjects in Group 2).
Group 2—A total of 12 males between 18 to 55 years of age, inclusive (±5 years age-matched and ±10% weight-matched to subjects in Group 1).
Group 3—A total of 12 males and females between 65 and 85 years of age, inclusive (weight and gender-matched to subjects in Groups 1 and 2), with a minimum of 3 subjects of each gender. Seven of the subjects in Group 3 were age 70 or above, with 2 of those subjects being >75 years of age.
Group 1 (Healthy Females) and Group 3 (Elderly Males and Females): Subjects were screened within 21 days of dosing and eligible subjects were admitted to the study center on Day −1 (i.e., at least 12 hours predose) for baseline assessments and confirmation of eligibility. A single oral dose of 100 mg Compound I was administered on Day 1 following an overnight fast of at least 8 hours. Subjects were discharged from the study center the morning of Day 3 upon completion of study procedures and returned to the study center for PK blood draws and safety assessments on Days 4, 5, and 6. The end-of-study (EOS) evaluation also occurred on Day 6. Subjects returned to the study center for a follow-up visit between 7 and 10 days from EOS. Serial blood samples were collected predose and up to 120 hours postdose for the determination of plasma Compound I concentrations. Safety was monitored throughout the study; safety evaluations included AE reporting, physical examinations, vital sign measurements, ECGs, and clinical laboratory safety tests. All AEs and concomitant medications were assessed and recorded throughout the study from the time the ICF was signed through follow-up.
Group 2 (Healthy Males): Subjects in Group 2 participated in this portion of the study to evaluate food effect using a randomized, open-label, single dose, 2-period (Period 1 and Period 2), 2-sequence, 2-way crossover design. Subjects were screened within 21 days of dosing and eligible subjects were admitted to the study center on Day −1 (i.e., at least 12 hours predose) for baseline assessments and confirmation of eligibility. On Day 1 of Period 1, following an overnight fast of at least 8 hours, subjects were randomized to receive 100 mg Compound I either with or without food (6 subjects received Compound I with food and 6 subjects received Compound I without food) according to a random code. Subjects were discharged from the study center the morning of Day 3 upon completion of study procedures and returned to the study center for PK blood draws and safety assessments on Days 4, 5, and 6.
Following an interdose interval of 10 to 15 days (i.e., at least 10 days and no more than 15 days from the dosing day (Day 1) of Period 1 to Day 1 of Period 2), subjects were re-admitted to the study center on Day −1 of Period 2 (i.e., at least 12 hours predose) for baseline assessments and reconfirmation of eligibility. On Day 1 of Period 2, assigned treatment was switched. Subjects who received Compound I with food in Period 1 received Compound I without food in Period 2 and subjects who received Compound I without food in Period 1 received Compound I with food in Period 2. Subjects were discharged from the study center the morning of Day 3 upon completion of study procedures and returned to the study center for PK blood draws and safety assessments on Days 4, 5, and 6. Day 6 of Period 2 also served as the EOS evaluation. Subjects returned to the study center for a follow-up visit between 7 and 10 days from EOS. In each study period, serial blood samples were collected predose and up to 120 hours postdose for the determination of plasma Compound I concentrations. […]

**Q.** What does the source list for `O[C@H]1CC[C@H](Nc2ncc3nc(Nc4c(F)cc(F)cc4F)n([C@H]4CCOC4)c3n2)CC1` [Compound I, 4-((9-((3S)-tetrahydro-3-furanyl)-8-((2,4,6-trifluorophenyl)amino)-9H-purin-2-yl)amino)-trans-cyclohexanol]?
**A.** AUC(0-t) (both sexes, po, Geometric Mean): 13500 ng·h/mL; AUC(0-t) (both sexes, po, Geometric Means): 13500 ng·h/mL; AUC(0-inf) (both sexes, po, AUC0-∞ (geometric mean)): 14400 ng·h/mL; AUC(0-inf) (both sexes, po, AUC0-∞, Geometric Mean): 14400 ng·h/mL; AUC(0-inf) (both sexes, po, AUC0-∞, Geometric Means): 14300 ng·h/mL; AUC (both sexes, po, AUCO-inf): 14800 ng·h/mL; AUC (both sexes, po, AUCO-t): 14200 ng·h/mL; Cmax (both sexes, po, Cmax): 742 ng/mL; Cmax (both sexes, po, Cmax (geometric mean)): 649 ng/mL; Cmax (both sexes, po, Cmax, Geometric Mean): 602 ng/mL; Cmax (both sexes, po, Cmax, Geometric Means): 654 ng/mL; half-life (both sexes, po, T1/2): 1470 min; Tmax (both sexes, po, Tmax): 1.97 h; Tmax (both sexes, po, Tmax, Median): 2 h; Vd/F (both sexes, po): 250 L; half-life (both sexes, po, mean t1/2): 1380 to 2040 min; Tmax (both sexes, po, median Tmax): 1 to 2 h; half-life (both sexes, po, t1/2, Geometric Mean): 1680 min; 90% CI for the ratio (elderly/young) of geometric means, AUC0-t (both): 86.7, 119.1; 90% CI for the ratio (elderly/young) of geometric means, AUC0-∞ (both): 84.0, 117.3; 90% CI for the ratio (elderly/young) of geometric means, Cmax (both): 82.0, 143.8; 90% CI for the ratio (female/male) of geometric means, AUC0-t (both): 81.7, 112.1; 90% CI for the ratio (female/male) of geometric means, AUC0-∞ (both): 79.7, 111.4; 90% CI for the ratio (female/male) of geometric means, Cmax (both): 72.3, 126.7; AUC0-t, Geometric Mean (both, po): 13679.40 ng·h/mL; AUC0-t, Geometric Means (both, po): 13722.1 ng·h/mL; AUC0-∞ (geometric mean) (both, po): 14239.14 ng·h/mL; AUC0-∞, Geometric Mean (both, po): 14239.14 ng·h/mL; AUC0-∞, Geometric Means (both, po): 14398.3 ng·h/mL; Cmax, Geometric Means (both, po): 602.0 ng/mL; Tmax, Median (both, po): 1.75 h; median Tmax (both, po): approximately 1.5 hours; t1/2, Geometric Mean (both, po): 23.61 h; AUC(0-t) (female, po, Geometric Mean): 13100 ng·h/mL; AUC(0-t) (female, po, Geometric Means): 13300 ng·h/mL; AUC(0-inf) (female, po, AUC0-∞): 13700 ng·h/mL; AUC(0-inf) (female, po, AUC0-∞, Geometric Mean): 13700 ng·h/mL; AUC(0-inf) (female, po, AUC0-∞, Geometric Means): 13900 ng·h/mL; AUC (female, po, AUCO-inf): 13300 ng·h/mL; AUC (female, po, AUCO-t): 12700 ng·h/mL; Cmax (female, po, Cmax): 587 ng/mL; Cmax (female, po, Cmax, Geometric Mean): 587 ng/mL; Cmax (female, po, Cmax, Geometric Means): 614 ng/mL; half-life (female, po, T1/2): 1470 min; Tmax (female, po, Tmax): 2.19 h; Tmax (female, po, Tmax, Median): 2.06 h; Vd/F (female, po): 265 L; Tmax (female, po, median Tmax): 2 h; half-life (female, po, t1/2, Geometric Mean): 1480 min; 90% CI of the median difference (elderly-young), Tmax: −0.5, 0.5; 90% CI of the median difference (fed-fast), Tmax: 2.00, 3.00; 90% CI of the median difference (female-male), Tmax: 0.00, 1.00; 90% CI for the ratio (fed/fast) of geometric means, AUC0-t (male): 97.3, 108.1; 90% CI for the ratio (fed/fast) of geometric means, AUC0-∞ (male): 98.5, 109.4; 90% CI for the ratio (fed/fast) of geometric means, Cmax (male): 71.6, 105.3; Tmax (male): 1.00 h; AUC(0-t) (male): 14400 ng·h/mL; AUC(0-inf) (male, AUC0-∞): 15600 ng·h/mL; Cmax (male, Cmax): 658 ng/mL; half-life (male, t1/2): 1920 min; median Tmax (male, po): 1 h; AUC(0-t) (male, po, Geometric Mean): 14000 ng·h/mL; AUC(0-inf) (male, po, AUC0-∞): 15000 ng·h/mL; AUC(0-inf) (male, po, AUC0-∞ (geometric mean)): 16200 ng·h/mL; AUC(0-inf) (male, po, AUC0-∞, Geometric Mean): 15000 ng·h/mL; AUC (male, po, AUCO-inf): 16000 ng·h/mL; AUC (male, po, AUCO-t): 14700 ng·h/mL; Cmax (male, po, Cmax): 646 ng/mL; Cmax (male, po, Cmax (geometric mean)): 572 ng/mL; Cmax (male, po, Cmax, Geometric Mean): 646 ng/mL; half-life (male, po, T1/2): 1980 min; Vd/F (male, po): 308 L; half-life (male, po, t1/2, Geometric Mean): 1690 min
